Data as given in patent US8669232B2, “Flavonol compounds, a bioactive extract/fraction from Ulmus wallichiana and its compounds for prevention for treatment of osteo-health related disorders” (Council of Scientific & Industrial Research, priority 2008, dated 2014).

Test system: BMCs (Bone Marrow Cells) from growing female rats
Experiment: Ex-vivo bone marrow cultures from treated immature rats (ALP, mineralization)
Assay type: in vivo, Sprague Dawley rats
Details: BMCs from growing rats treated with 5.0 mg/kg body weight for 30 days; vs controls
Excerpt: Right femur of control and C002 treated rats were collected aseptically in PBS during autopsy from the rats. Soft tissue was removed, and the ends of the femur was clipped off using sterile scissors, a hole was created in the knee joint end of each bone with a needle, and the marrow was flushed out from the shaft with control medium (CM) which consisted of α-MEM supplemented with 10% fetal calf serum, 100 U/ml penicillin, 100 U/ml streptomycin (Sigma, Chemical Co., St. Louis, Mo., USA). The cells were suspended in this medium, and the suspensions were spun down at 800 rpm for 5 min. Cells were resuspended in fresh CM and counted using a haemocytometer. […] ALP activity was determined as described by Akiyama et al. with modifications. Briefly, cells were washed once with PBS, then, ALP activity was measured by adding ALP buffer (1 M diethanolamine, 0.5 mM MgCl2, 1 mg/ml PNPP, pH 9.0), incubating in 37° C., and absorbance (405 nm) was read using a microplate spectrophotometer. Statistical significance was determined by paired two-tailed Student's t-tests. […]
Right femur of control and K058 treated rats were collected aseptically in PBS during autopsy from the rats. […] Cells were resuspended in fresh CM and counted using a haemocytometer. […] ALP activity was determined as described by Akiyama et al. with modifications. […] Statistical significance was determined by paired two-tailed Student's t-tests.

## O=C1c2c(cc(O)c([C@@H]3OC(CO)[C@@H](O)[C@H](O)C3O)c2O)O[C@@H](c2ccc(O)c(O)c2)[C@@H]1O (stereo partly drawn) [K058, (2S,3S)-(+)-3′,4′,5,7-tetrahydroxydihydroflavonol-6-C-β-D-glucopyranoside]
  ALP activity of BMCs (osteoblast differentiation): significantly more
  mineralization of BMCs (alizarin red-S): significantly more
